Here are results for 3 compounds from PMC10321576, “Cyclic peptides target the aromatic cage of a PHD-finger reader domain to modulate epigenetic protein function” (Chemical Science, 2023).

Peptide text beside a SMILES is read from it.

In assay [1] the target is KDM7A dual domain (Homo sapiens, UniProt Q6ZMT4). As to the kind of experiment: MALDI-TOF-MS KDM7 activity assay (H3 peptide demethylation). The assay is classed as biochemical. The method, then: Fig. 5 KDM7 PHD-finger inhibition by OC9 modulates dual domain JmjC activity. (a) (i–iii) OC9 inhibits demethylation of H3K9me2, with or without K4me3, by KDM7B (0.4 μM) on H3 peptide (2.5 μM). […] (b) (i–iii) OC9 enhances demethylation of H3K4me3K9me2 by KDM7A (0.55 μM) on H3 peptide (2.5 μM), and (iv) enhances KDM7A (0.5 μM) demethylation of calf histone extracts (50 μg). […] Inset MALDI-TOF-MS overlays are from respective highest OC9 concentration points compared to DMSO alone. KDM7 PHD-finger only proteins had no demethylase activity (Fig. S40 ^†). Calf histone H3K9me2 was quantitated relative to H4 band intensities at each time point, normalised to DMSO at t = 0. Full Western blots available in Fig. S42. ^† Relative rates (Krel min^−1) from a one-phase decay model, average from N = 3 independent experiments. […] The enzyme heading of the panel (KDM7B / KDM7A) was put in front of them. / DMSO is the vehicle control. Its printed rates (0.30 min^-1 in a, 0.04 min^-1 in b) are included because they are printed with its name.
KDM7A dual domain, sequence (Q6ZMT4 38-480 limits assumed): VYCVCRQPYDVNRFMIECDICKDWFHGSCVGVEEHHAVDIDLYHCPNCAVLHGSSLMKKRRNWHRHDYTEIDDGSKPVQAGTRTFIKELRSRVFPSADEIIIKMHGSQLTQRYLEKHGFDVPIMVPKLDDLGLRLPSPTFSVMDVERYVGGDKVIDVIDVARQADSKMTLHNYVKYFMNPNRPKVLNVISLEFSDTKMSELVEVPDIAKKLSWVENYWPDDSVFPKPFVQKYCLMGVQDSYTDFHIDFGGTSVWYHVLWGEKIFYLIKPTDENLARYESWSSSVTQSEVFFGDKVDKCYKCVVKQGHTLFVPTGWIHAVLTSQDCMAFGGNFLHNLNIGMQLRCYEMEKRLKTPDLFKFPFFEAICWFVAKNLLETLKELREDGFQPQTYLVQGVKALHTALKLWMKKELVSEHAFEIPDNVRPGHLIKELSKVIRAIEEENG
In contrast to KDM7B, KDM7A lacks activity against H3K4me3K9me2, but demethylates H3_1–21K9me2.[57] OC9, however, restored the activity of KDM7A against H3_1–21K4me3K9me2 from <5% to a level (∼30%) that approached demethylation on H3_1–21K9me2 with DMSO alone (∼40%) (Fig. 5b and S39 ^†). […]

The target in assay [2] is T1, KDM7B PHD (Homo sapiens, UniProt Q9UPP1).
T1 construct: KDM7B 1-66; made in house
T1 sequence (Q9UPP1 1-66 isoform Q9UPP1-2): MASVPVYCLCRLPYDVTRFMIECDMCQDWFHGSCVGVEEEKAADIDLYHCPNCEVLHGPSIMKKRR
As to the kind of experiment: BLI binding. To be noted: read-out: BLI KD, KDM7B PHD-finger. The text has this: Figure S2. BLI for KDM7 proteins with cyclic peptides.
BLI traces for b inding to KDM7 protein domains immobilised by C-terminal His -tag on Ni -NTA
biosensors, against cyclic peptides. Response trace for each peptide concentration is represented by
a different colour, with the fitted curves overlaid in black.
concentration plotted, with 2-fold dilutions thereafter. Dual domain = PHD+JmjC. […]
against KDM7 and other protein domains. t1/2 = half life (0.693 / Koff)
(1 picture or pasted object on this page, not shown here)

For assay [3], the target named is T2, KDM7B PHD-finger (Homo sapiens, UniProt Q9UPP1).
T2 construct: KDM7B 1-66; His-tag (C); made in house
T2 sequence (Q9UPP1 1-66 isoform Q9UPP1-2): T1 sequence (Q9UPP1 1-66 isoform Q9UPP1-2)
The assay can be described thus: Protein NMR affinity assessment. The assay is classed as binding. The note with it: read-out: NMR pKD, KDM7B PHD-finger (converted).

The subject of assay [4] is full-length KDM7B. As to the kind of experiment: Pull-down from transfected HEK293T nuclear lysates. The assay is classed as binding. To be noted: 100-fold excess competitor. The method, then:
HEK293T cells were transiently transfected with either a full-length wild-type KDM7B, or an aromatic cage inactivating mutant KDM7B (Y14A, W29A).[20]
Capture was performed with 1 μM probe incubated in pre-cleared lysate, recovered with streptavidin-conjugated magnetic beads, then washed and eluted by heating in denaturing solution. 100-fold excess OC9 or OC9 V10A were used as competitors. […] The upper left quadrant indicates >5-fold difference in recovered protein (based on T-test difference of mean log 2 (LFQ) values) and p-value threshold <0.05.

One may read the IC50 as the concentration that inhibits the measured activity by half. As for `CN(C)NC(=O)CCC(=O)O` [DAM, daminozide, reference compound], the IC50 in assay [1] is 0.251 µM.

Turning to `CC(C)C[C@@H]1NC(=O)[C@H](Cc2ccc(O)cc2)NC(=O)[C@H](Cc2ccc(O)cc2)NC(=O)CSC[C@@H](C(N)=O)NC(=O)[C@H]([C@@H](C)O)NC(=O)[C@H](CCCNC(=N)N)NC(=O)[C@H](Cc2ccccc2)NC(=O)[C@@H](C(C)C)NC(=O)[C@H](CO)NC(=O)[C@@H]2CCCN2C(=O)[C@H](Cc2ccc(O)cc2)NC(=O)[C@@H]2CCCN2C(=O)[C@H](Cc2c[nH]cn2)NC(=O)[C@H]([C@@H](C)O)NC1=O` [OC9 V10DV] (HELM PEPTIDE1{[O=C(C[*:3])[*:2]].Y.Y.L.T.H.P.Y.P.S.[dV].F.R.T.C.[am]}$PEPTIDE1,PEPTIDE1,1:R3-15:R3$$$V2.0; C-terminus assumed), the Kd in assay [2] is more than 10 µM; in assay [3] it was more than 501 µM.

In the case of `CC(C)C[C@@H]1NC(=O)[C@H](Cc2ccc(O)cc2)NC(=O)[C@H](Cc2ccc(O)cc2)NC(=O)CSC[C@@H](C(N)=O)NC(=O)[C@H]([C@@H](C)O)NC(=O)[C@H](CCCNC(=N)N)NC(=O)[C@H](Cc2ccccc2)NC(=O)[C@H](C)NC(=O)[C@H](CO)NC(=O)[C@@H]2CCCN2C(=O)[C@H](Cc2ccc(O)cc2)NC(=O)[C@@H]2CCCN2C(=O)[C@H](Cc2c[nH]cn2)NC(=O)[C@H]([C@@H](C)O)NC1=O` [V10A] (HELM PEPTIDE1{[O=C(C[*:3])[*:2]].Y.Y.L.T.H.P.Y.P.S.A.F.R.T.C.[am]}$PEPTIDE1,PEPTIDE1,1:R3-15:R3$$$V2.0; C-terminus assumed), the “competition of OC9-Bt pull-down of KDM7B” value in assay [4] was “did not reduce recovery so substantially”.
